Test [1] relates to thromboxane A2 biosynthesis. Nature of the test: Platelet malondialdehyde (MDA) production in vitro, human platelets in plasma, thrombin stimulated. The test is classed as cell-based. The conditions noted are these: human platelet-rich plasma, thrombin 20 N.I.H. U/ml, 10 min pre-incubation at 37° C., 30 min reaction, 50% inhibition vs solvent. Here is the method: (§1) MDA production by platelets in plasma, as an indicator of the thromboxane A2 biosynthesis, was evaluated spectrofluometrically. […] After 30 min at 37° C., the reaction was terminated by the addition of 1 ml of 10% (w/v) trichloroacetic acid. After isolation of the supernatant by centrifugation at 320 g for 20 min, the thiobarbituric acid reaction for MDA was performed using acid-hydrolyzed 1,1,3,3-tetramethoxypropane as a standard. The fluorescence of the samples at 553 nm after excitation at 510 nm was measured. The results were calculated as nM MDA/10^8 platelets/30 min and were expressed as a percentage inhibition produced by the compounds relative to the formation of MDA after thrombin stimulation in the solvent. For in vitro experiments, human platelets in plasma were used. Percentage inhibition was calculated versus the solvent value.

Test [2] has as its system thromboxane A2 biosynthesis. As to the kind of experiment: Platelet malondialdehyde (MDA) production in vivo, male Wistar rats. The conditions noted are these: Rattus norvegicus, read-out: MDA production in vivo ED50-values. As to the method:
as §1, with “After isolation of the supernatant by centrifugation at 320 g for 20 min, the thiobarbituric acid reaction for MDA was performed using acid-hydrolyzed 1,1,3,3-tetramethoxypropane as a standard.” left out
For in vivo experiments male Wistar rats were fasted overnight. 2 Hours before blood sampling they were treated with the test compound solution/suspension or the solvent. […] ED50 -values were determined by probit analysis.

[3] abbreviates: male Wistar rats fasted overnight, treated 2 hours before blood sampling, 50% inhibition relative to MDA values with solvent, probit analysis.

Where two headings read alike, the source gives them in different places. Bounds are passed on as bounds.

Compound `O=C(O)CCCCON=C(c1ccccc1)c1cccnc1` [Compound 4, (E+Z)-5-[[[phenyl(3-pyridinyl)methylen]amino]oxy]pentanoic acid] had an IC50 in test [1] of 0.1 µM. Also, in test [2] (setting [3]), the ED50 is 0.059 mg/kg.

For the compound `CCOC(=O)CCCCO/N=C(\c1ccccc1)c1cccnc1` [Compound 9], the IC50 in test [1] is < 0.1 µM.

Compound `O=C(O)CCCCO/N=C(/c1cccnc1)c1cccc(C(F)(F)F)c1` [Compound 63, (E)-5-[[[(3-pyridinyl)[3-(trifluoromethyl)phenyl]methylen]amino]oxy]pentanoic acid] displayed a concentration for half-maximal inhibition (IC50) in test [1] of 0.022 µM. Moreover, in test [2] (setting [3]), the ED50 amounted to 0.012 mg/kg.

`O=C(O)CCCCO/N=C(\c1ccccc1)c1cccnc1` [Compound 65] yielded an IC50 in test [1] of 0.066 µM. The ED50 in test [2] (setting [3]) was 0.045 mg/kg.

Regarding `O=C(O)CCCCO/N=C(\Cc1ccccc1)c1cccnc1` [Compound 68], the IC50 in test [1] turned out to be 0.075 µM. Also, in test [2] (setting [3]), the ED50 came out at 1 mg/kg.

In turn, `COc1ccc(C(=NOCCCCC(=O)O)c2cccnc2)cc1` [Compound 69] came in with a concentration for half-maximal inhibition (IC50) in test [1] of 0.1 µM. Also, the ED50 in test [2] (setting [3]) stood at 0.17 mg/kg.

For `O=C(O)CCCCON=C(c1cccnc1)c1cccnc1` [Compound 70], the IC50 in test [1] was 0.18 µM. Also, in test [2] (setting [3]), the ED50 turned out to be 1.2 mg/kg.

Compound `Cc1ccc(C(=NOCCCCC(=O)O)c2cccnc2)cc1` [Compound 72] gave an IC50 in test [1] of 0.12 µM. The ED50 in test [2] (setting [3]) was 0.041 mg/kg.

With `O=C(O)CCCCON=C(c1ccc(F)cc1)c1cccnc1` [Compound 73], inhibition in test [1] was half-maximal at 0.3 µM (IC50). For the same compound, in test [2] (setting [3]), the 50% effective dose (ED50) came out at 0.2 mg/kg.

In test [1], `O=C(O)CCCCON=C(c1cccnc1)c1cccc2ccccc12` [Compound 74] returned an IC50 of 0.023 µM. Further, the ED50 in test [2] (setting [3]) turned out to be 0.023 mg/kg.

Turning to `O=C(O)CCCCO/N=C(/c1cccnc1)c1cccs1` [Compound 76], in test [1], the IC50 turned out to be 0.12 µM. In addition, in test [2] (setting [3]), the ED50 amounted to 0.068 mg/kg.

For `O=C(O)CCCCON=C(c1cccnc1)c1ccc2ccccc2c1` [Compound 78], the IC50 in test [1] worked out at 0.24 µM. In test [2] (setting [3]), the ED50 was found to be 0.044 mg/kg.

The compound `COc1ccc(C(=NOCCCCC(=O)O)c2cccnc2)cc1OC` [Compound 82] had an IC50 in test [1] of 0.11 µM. Moreover, the ED50 in test [2] (setting [3]) stood at 0.056 mg/kg.

On to `O=C(O)CCCCO/N=C(/c1cccnc1)c1ccsc1` [Compound 84], for which, in test [1], the IC50 stood at 0.11 µM. Besides, the ED50 in test [2] (setting [3]) amounted to 0.17 mg/kg.

In test [1], `CCCC/C(=N\OCCCCC(=O)O)c1cccnc1` [Compound 86] showed an IC50 of 0.063 µM. Moreover, the ED50 in test [2] (setting [3]) is > 0.16 mg/kg.

Compound `COC(OC)c1ccccc1/C(=N\OCCCCC(=O)O)c1cccnc1` [Compound 87] returned a concentration for half-maximal inhibition (IC50) in test [1] of 0.024 µM. Besides, in test [2] (setting [3]), the median effective dose (ED50) was > 0.16 mg/kg.

The compound `Cc1cccc(C(=NOCCCCC(=O)O)c2cccnc2)c1` [Compound 89] came in with an IC50 in test [1] of 0.043 µM. For the same compound, the ED50 in test [2] (setting [3]) came to 0.02 mg/kg.

In the case of `Cc1cccc(/C(=N\OCCCCC(=O)O)c2cccnc2)c1` [Compound 90, (E)-5-[[[(3-methylphenyl)(3-pyridinyl)methylen]amino]oxy]pentanoic acid], in test [1], the IC50 amounted to 0.024 µM. The median effective dose (ED50) in test [2] (setting [3]) was determined as 0.013 mg/kg.

In turn, `O=C(O)CCCCO/N=C(/c1cccnc1)c1cc(C(F)(F)F)cc(C(F)(F)F)c1` [Compound 92] came in with an IC50 in test [1] of 0.033 µM. Also, the ED50 in test [2] (setting [3]) came out at 0.01 mg/kg.

Compound `O=C(O)CCCCO/N=C(/c1cccnc1)c1cccc2ccccc12` [Compound 93, (E)-5-[[[(1-naphthalenyl)(3-pyridinyl)methylen]amino]oxy]pentanoic acid] yielded an IC50 in test [1] of 0.01 µM. Moreover, the ED50 in test [2] (setting [3]) stood at 0.014 mg/kg.

As to `O=C(O)CCCCON=C(c1cccnc1)c1ccccc1C(F)(F)F` [Compound 94], in test [1], the IC50 was 0.032 µM.

`O=Cc1cccc(C(=NOCCCCC(=O)O)c2cccnc2)c1` [Compound 116, (E+Z)-5-[[[(3-formylphenyl)(3-pyridinyl)methylen]amino]oxy]pentanoic acid] came in with an IC50 in test [1] of 0.1 µM.

For `O=C([O-])CCCCO/N=C(/c1cccnc1)c1cccc(C(F)(F)F)c1.[Na+]` [Compound 121, sodium (E)-5-[[[(3-pyridinyl)[3-(trifluoromethyl)phenyl]methylen]amino]oxy]pentanoate], 0.014 µM corresponded to half-maximal inhibition in test [1] (Homo sapiens, Platelet) (IC50). Moreover, the ED50 in test [2] (2 h) worked out at 0.015 mg/kg.

Consider `O=C([O-])CCCCO/N=C(\c1ccccc1)c1cccnc1.[Na+]` [Compound 122, sodium (E)-5-[[[phenyl(3-pyridinyl)methylen]amino]oxy]pentanoate], for which the IC50 in test [1] (Homo sapiens, Platelet) was found to be 0.081 µM. The ED50 in test [2] (2 h) was < 0.16 mg/kg.

As for `O=C(O)CCCCO/N=C(/c1cccnc1)c1cccc2ccccc12` [Compound 123, sodium (E)-5-[[[(1-naphthalenyl)(3-pyridinyl)methylen]amino]oxy]pentanoate], the IC50 in test [1] (Homo sapiens, Platelet) was found to be 0.018 µM.

These data come from US4963573A, “[[[(3-pyridinyl)methylen]amino]oxy]alkanoic acids and esters” (Janssen Pharmaceutica N.V., priority 1989, dated 1990).
